The subject of test [1] is hGYS1 enzyme / glycogen synthesis in HeLa cells. The test can be described thus: GYS1 cell based assay (glycogen synthesis, Glucose-glo). Further details: species or system human. The following applies: 24 h incubation, 20 mM glucose, geometric mean of at least 2 runs. The text has this: The GYS1 cell based assay is a bioluminescent assay that quantifies the glucose resulting from glycogen digestion; the quantified glucose is an indirect measure of GYS1 glycogen synthesis. Newly synthesized glycogen is digested using Glucoamylase; the resulting glucose is quantified by using the Glucose-glo assay kit from Promega. Glucose-glo works by coupling glucose oxidation and NADH production with a bioluminescent system that is activated with NADH. Glucose is oxidized by Glucose dehydrogenase and the reaction reduces NAD+ to NADH; NADH activates Reductase which reduces a pro-luciferin Reductase Substrate to luciferin. Luciferin is detected in a luciferase reaction using Ultra-Glo rLuciferase and ATP, and the luminesce produced is proportional to the glucose in the sample. The luminescence is measured as a single point read in a plate reader.
Compounds that inhibit the hGYS1 enzyme and, subsequently, the glycogen synthesis in cells, were tested using assay ready plates (white, clear bottom 384 well plates) in a final DMSO reaction volume of 1% DMSO. Compounds in the assay ready plates were mixed with media with no additives, except for 20 mM glucose prior to cell addition. HeLa cells were starved in media with no additives, except for 1× Glutamax for 24 h. Starved HeLa cells were plated, in a 1:1 ratio to the media in the assay ready plate and incubated for 24 h at 37° C. and 5% C02. Cells were washed in 1×PBS buffer and lysed in lysis buffer containing 50% 1×PBS and 25% 0.3 N HCl of the final volume in the well or reaction volume; cells were incubated with lysis buffer for 10 minutes and quenched with the remaining 25% of the reaction volume that consisted of 450 mM Tris pH 8.0. Lysates were mixed in a 1:1 ratio with Glucoamylase in 100 mM Sodium Acetate buffer, pH 5.3; the mixture was incubated for 1 h at 37° C. The digested lysate was mixed in a 1:1 ratio with Glucose-glo detection mixture as per vendor recommendations (Luciferase detection buffer, Reductase, Reductase substrate, Glucose dehydrogenase, and NAD) in read-out plates (solid white 384-well plates) and incubated for 1 h at RT. The plates were read using a plate reader with luminescence capabilities. Each compound concentration Relative Luminescence Unit (RLU) was averaged and normalized to the average RLU of the positive and negative controls to obtain a percentage inhibition. The normalized data vs. concentration was plotted; to determine the half-maximal concentration (IC50), the Levenberg-Marquardt algorithm was used to fit a Hill equation to the dose response data.
The results are shown in Table 3 below, which reports the IC50 of each compound. Unless otherwise specified, IC50 values are reported as the geometric mean of at least 2 assay runs on separate days. As shown in the table below, the compounds of the present invention are potent inhibitors of human GYS1. Unless otherwise specified, IC50 values are reported as the geometric mean of at least two assay runs on separate days. Each run represents the average of a technical replicate, where each compound was assayed twice in the same plate. A superscript “#” symbol in Table 3 indicates results from a single assay run.

The target in test [2] is hGYS1 enzyme (recombinant hGYS1/GN1 protein) (Homo sapiens (Human), UniProt P13807). Description: GYS1 coupled enzyme assay (PK/LDH). It counts as biochemical. Conditions: hGYS1/GN1 50 nM, UDP-Glucose 0.8 mM, G6P 1 mM; geometric mean of at least 2 runs.
Sequence of hGYS1 enzyme (recombinant hGYS1/GN1 protein) (P13807 whole entry): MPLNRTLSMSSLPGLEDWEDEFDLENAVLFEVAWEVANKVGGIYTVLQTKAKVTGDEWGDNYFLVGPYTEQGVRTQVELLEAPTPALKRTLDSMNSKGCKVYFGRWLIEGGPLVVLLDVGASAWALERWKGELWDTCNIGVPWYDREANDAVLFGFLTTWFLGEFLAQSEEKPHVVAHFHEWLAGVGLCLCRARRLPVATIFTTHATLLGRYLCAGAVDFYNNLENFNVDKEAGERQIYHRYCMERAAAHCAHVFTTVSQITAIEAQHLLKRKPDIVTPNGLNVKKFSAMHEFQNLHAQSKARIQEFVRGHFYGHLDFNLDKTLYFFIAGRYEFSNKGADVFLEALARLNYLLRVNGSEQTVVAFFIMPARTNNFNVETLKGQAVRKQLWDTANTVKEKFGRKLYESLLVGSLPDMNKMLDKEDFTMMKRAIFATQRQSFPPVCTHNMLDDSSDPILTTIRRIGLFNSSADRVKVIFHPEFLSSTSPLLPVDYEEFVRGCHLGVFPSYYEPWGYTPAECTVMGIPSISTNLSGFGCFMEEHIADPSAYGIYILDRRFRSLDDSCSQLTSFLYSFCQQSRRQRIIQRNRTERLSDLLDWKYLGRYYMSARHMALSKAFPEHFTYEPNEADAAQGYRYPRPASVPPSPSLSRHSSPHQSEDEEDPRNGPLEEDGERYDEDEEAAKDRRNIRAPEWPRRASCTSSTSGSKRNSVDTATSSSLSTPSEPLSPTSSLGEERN
Sequence of hGYS1 enzyme (recombinant hGYS1/GN1 protein) (P46976 whole entry partner): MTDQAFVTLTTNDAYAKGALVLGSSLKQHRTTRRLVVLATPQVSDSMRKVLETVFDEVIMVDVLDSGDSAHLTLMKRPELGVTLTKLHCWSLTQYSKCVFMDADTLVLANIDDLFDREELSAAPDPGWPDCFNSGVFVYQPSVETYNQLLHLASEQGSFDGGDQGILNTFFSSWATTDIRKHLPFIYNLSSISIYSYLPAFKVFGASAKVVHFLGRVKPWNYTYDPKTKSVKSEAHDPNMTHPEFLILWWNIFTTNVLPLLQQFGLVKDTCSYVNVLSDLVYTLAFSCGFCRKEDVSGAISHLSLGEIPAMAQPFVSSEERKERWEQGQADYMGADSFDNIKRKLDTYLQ

Each structure is given as a SMILES string. Bounds are passed on as bounds.

`O=C(NC(c1ccc(C2CC2)c(F)n1)c1ccccc1F)[C@@H]1C[C@@H](F)CN1C(=O)Cn1nnnc1C(F)F` (single isomer, unassigned) [Compound 657, (2S,4R)-N-[(S) or (R)-(5-cyclopropyl-6-fluoropyridin-2-yl)(2-fluorophenyl)methyl]-1-{2-[5-(difluoromethyl)-1H-1,2,3,4-tetrazol-1-yl]acetyl}-4-fluoropyrrolidine-2-carboxamide]: the IC50 – broadly, the concentration needed to halve the response being measured – in test [1] (Homo sapiens, HeLa, 24 h) turned out to be 1.5 µM; in test [2], 0.127 µM.

On to `O=C(NC(c1ccc(F)cc1)c1ccc(C2CC2)c(F)n1)[C@@H]1C[C@@H](F)CN1C(=O)Cn1nnnc1C(F)F` (single isomer, unassigned) [Compound 658, (2S,4R)-N-[(S) or (R)-(5-cyclopropyl-6-fluoropyridin-2-yl)(4-fluorophenyl)methyl]-1-{2-[5-(difluoromethyl)-1H-1,2,3,4-tetrazol-1-yl]acetyl}-4-fluoropyrrolidine-2-carboxamide], for which the IC50 in test [1] (Homo sapiens, HeLa, 24 h) turned out to be 1.66 µM; in test [2], 0.099 µM.

Regarding `Cc1cc(C(NC(=O)[C@@H]2C[C@@H](F)CN2C(=O)Cc2cnn[nH]2)c2ccccc2)cc(F)c1C(C)C` (single isomer, unassigned) [Compound 678, (2S,4R)-4-fluoro-N-[(R) or (S)-[3-fluoro-5-methyl-4-(propan-2-yl)phenyl](phenyl)methyl]-1-[2-(1H-1,2,3-triazol-5-yl)acetyl]pyrrolidine-2-carboxamide], the IC50 in test [1] was above 10 µM; in test [2] it was 1.06 µM.

Turning to `CC(C)c1ccc(C(NC(=O)[C@@H]2C[C@@H](F)CN2C(=O)Cc2cnn[nH]2)c2ccccc2)cc1C(F)(F)F` (single isomer, unassigned) [Compound 683, (2S,4R)-4-fluoro-N-[(S) or (R)-phenyl[4-(propan-2-yl)-3-(trifluoromethyl)phenyl]methyl]-1-[2-(1H-1,2,3-triazol-5-yl)acetyl]pyrrolidine-2-carboxamide], the IC50 in test [1] (Homo sapiens, HeLa, 24 h) was above 30 µM; in test [2], 2.36 µM.

Consider `CC(=O)NCC(=O)N1C[C@H](F)C[C@H]1C(=O)NC(c1cccc(-c2ccn[nH]2)c1)c1ccc(C(C)C)c(F)n1` (single isomer, unassigned) [Compound 691, (2S,4R)-1-(2-acetamidoacetyl)-4-fluoro-N-[(S) or (R)-[6-fluoro-5-(propan-2-yl)pyridin-2-yl][3-(1H-pyrazol-5-yl)phenyl]methyl] pyrrolidine-2-carboxamide], for which the IC50 was 0.39 µM in test [1] (Homo sapiens, HeLa, 24 h) and 0.015 µM in test [2].

On to `CC(C)c1ccc(C(NC(=O)[C@@H]2C[C@@H](F)CN2C(=O)Cc2cnn[nH]2)c2cccc(-c3cnco3)c2)nc1F` (single isomer, unassigned) [Compound 692, (2S,4R)-4-fluoro-N-[(R) or (S)-[6-fluoro-5-(propan-2-yl)pyridin-2-yl][3-(1,3-oxazol-5-yl)phenyl]methyl]-1-[2-(1H-1,2,3-triazol-5-yl)acetyl]pyrrolidine-2-carboxamide], for which the IC50 in test [1] was above 30 µM; in test [2], 2.48 µM.

Turning to `CC(C)c1ccc(C(NC(=O)[C@@H]2C[C@@H](F)CN2C(=O)Cc2cnn[nH]2)c2cccc(-c3cnco3)c2)nc1F` (single isomer, unassigned) [Compound 693, (2S,4R)-4-fluoro-N-[(S) or (R)-[6-fluoro-5-(propan-2-yl)pyridin-2-yl][3-(1,3-oxazol-5-yl)phenyl]methyl]-1-[2-(1H-1,2,3-triazol-5-yl)acetyl]pyrrolidine-2-carboxamide], the IC50 in test [1] came out at 1.15 µM; in test [2], 0.056 µM.

As for `CC(=O)N1C[C@H](F)C[C@H]1C(=O)NC(c1cccc(-c2ccnn2C)c1)c1ccc(C(C)C)c(F)n1` (single isomer, unassigned) [Compound 695, (2S,4R)-1-acetyl-4-fluoro-N-[(S) or (R)-[6-fluoro-5-(propan-2-yl)pyridin-2-yl][3-(1-methyl-1H-pyrazol-5-yl)phenyl]methyl] pyrrolidine-2-carboxamide], the IC50 in test [1] (Homo sapiens, HeLa, 24 h) was above 26.3 µM; in test [2] it was 0.929 µM.

The values are drawn from patent US11814367B2, “Inhibitors of glycogen synthase 1 (GYS1) and methods of use thereof” (Maze Therapeutics, Inc., priority 2021, dated 2023).
